Laboratory results reported in publication PMC8700061, “Fragment-Sized and Bidentate (Immuno)Proteasome Inhibitors Derived from Cysteine and Threonine Targeting Warheads” (Cells, 2021).
Marks after values point to notes of the source that are not given here.

Columns and labels:
[1] = UV-Vis-based stability assay in buffer; type: physicochemical; settings: after 1 h, assay buffer pH 7.4, 37 °C, 50 µM
Description: The aqueous stability of all compounds was determined spectrophotometrically by following the changes in the absorption spectra of the compounds. The buffer solution (50 mM Tris-HCl, 0.5 mM EDTA, pH 7.4) was pre-incubated at 37 °C. Aliquots of the compounds studied (1 mM in DMSO) were transferred to a 96-well flat-bottom UV-transparent microplate (Corning, CLS3635, Corning Inc, Corning, NY, USA) containing the buffer solution to obtain a 50 μM solution containing 5% DMSO (final volume, 300 μL). The plate was incubated without lid at 37 °C in a plate reader (Synergy H4, BioTek Instruments, Inc., Santa Clara, CA, USA) and the absorbance spectrum (244–400 nm) was acquired in sweep mode after 0, 15, 30, 60, 120, 180, and 240 min using a discontinuous kinetic procedure in Gen5 software (BioTek Instruments, Inc., Santa Clara, CA, USA). The time required to read the entire plate was 3 min. To determine the baseline, the compound solution was replaced with pure DMSO and subtracted from each reading. Compounds with an absorbance maximum of less than 0.20 AU were not evaluated using these assays due to the high experimental error. For other compounds, the relative absorbance difference between the first time point and 60 min at the most responsive wavelength was calculated. If the relative absorbance difference for the compound in the buffer was below 0.1, between 0.1–0.2, and above 0.2, the compound was classified as stable, intermediate, and unstable, respectively.

[2] = HPLC-based stability assay in PBS; type: physicochemical; settings: PBS pH 7.4
Description: (§1) GSH reactivity assay was performed as described by Petri et al.; 500 μM solution of compound (PBS buffer pH 7.4, 10% MeCN, 250 μL) with 200 μM solution of indoprofen as internal standard were added to 10 mM GSH solution (dissolved in PBS buffer, 250 μL) in a 1:1 ratio. The final concentration was 250 μM compound, 100 μM indoprofen, 5 mM GSH and 5% MeCN (500 μL). The final mixture was analyzed by HPLC after 0, 1, 2, 4, 8, 12, 24, 48, and 72 h. The degradation kinetics were also studied using the method described in [24], except that pure PBS buffer was used instead of GSH solution. In this experiment, the final concentration of the mixture was 250 μM fragment, 100 μM indoprofen and 5% MeCN. The area under the curve (AUC) values were determined by integrating the HPLC spectra and then corrected with the internal standard.

[3] = biological target: T1, β1i subunit of human iCP (Homo sapiens, UniProt P28065+P40306); experiment: Inhibition of β1i activity (RA, IC50), Ac-PAL-AMC; type: biochemical; settings: PA28α; for IC50: 30 min pre-incubation
T1 construct: purchased Boston Biochem, Inc., Cambridge, MA, USA
Description: (§2) Residual activity measurements were performed at 10 μM final concentrations in the assay buffer (0.01% SDS, 50 mM Tris-HCl, 0.5 mM EDTA, pH 7.4). Stock solutions of the compounds were prepared in DMSO. To 50 μL of each compound in buffer, 25 μL of 0.8 nM human iCP or human cCP (both from Boston Biochem, Inc., Cambridge, MA, USA) were added. After incubation at 37 °C for 30 min, the reaction was started by adding of 25 μL of 100 μM relevant fluorogenic substrate: acetyl-Nle-Pro-Nle-Asp-AMC (Ac-nLPnLD-AMC, (Bachem, Bubendorf, Switzerland)) for β1, acetyl-Pro-Ala-Leu-7-amino-4-methylcoumarin (Ac-PAL-AMC, (Boston Biochem, Inc., Cambridge, MA, USA)) for β1i, t-butyloxycarbonyl-Leu-Arg-Arg-7-amino-4-methylcoumarin (Boc-LRR-AMC, (Bachem, Bubendorf, Switzerland)) for β2 and β2i, succinyl-Leu-Leu-Val-Tyr-7-amino-4-methylcoumarin (Suc-LLVY-AMC) (Bachem, Bubendorf, Switzerland) for β5 and β5i. Reaction progress was recorded on BioTek Synergy HT microplate reader by monitoring fluorescence at 460 nm (λex = 360 nm) for 90 min at 37 °C. The initial linear ranges were used to calculate velocity and determine residual activity. In the case of evaluation of β1, βi, β2, and β2i activities, the assay buffer was modified by replacing SDS with the proteasomal activator PA28α (Boston Biochem, Inc., Cambridge, MA, USA).
(§3) Final assay mixtures contained 0.2 nM human iCP or 0.2 nM human cCP in assay buffer (0.01% SDS (or PA28α in cases of β1, β1i subunits), 50 mM Tris-HCl, 0.5 mM EDTA, pH 7.4). Inhibitors were dissolved in DMSO and added to the black 96-well plates for at least eight different concentrations (the final concentration of DMSO was not more than 1%). After 30 min of incubation at 37 °C, the reaction was started by adding the substrate Suc-LLVY-AMC (for β5 and β5i) or Ac-nLPnLD-AMC (for β1) or Ac-PAL-AMC (for β1i). Fluorescence was monitored at 460 nm (λex = 360 nm) for 90 min at 37 °C. The progress of the reactions was recorded and the initial linear ranges were used to calculate the velocity. IC50 values were calculated using GraphPadPrism (GraphPad Software, San Diego, CA, USA) and are means from at least three independent determinations.

[4] = biological target: T2, β2 subunit of human cCP (Homo sapiens, UniProt P49720+Q99436); experiment: Residual β2 activity, Boc-LRR-AMC; type: biochemical; settings: 10 µM, PA28α
T2 construct: purchased Boston Biochem, Inc., Cambridge, MA, USA
Description: as §2

[5] = biological target: T3, β2i subunit of human iCP (Homo sapiens, UniProt P40306+P49720); experiment: Residual β2i activity, Boc-LRR-AMC; type: biochemical; settings: 10 µM, PA28α
T3 construct: purchased Boston Biochem, Inc., Cambridge, MA, USA
Description: as §2

[6] = biological target: T4, β5i subunit of human iCP (Homo sapiens, UniProt P20618+P28062); experiment: Inhibition of β5i activity (RA at 10 µM, IC50, IC50 shift), Suc-LLVY-AMC; type: biochemical; settings: for IC50 / RA (%) at 10 µM, β5i: 30 min pre-incubation, SDS activator; for IC50: read-out: IC50 (µM), β5i; for Group efficiency (GE): ΔpIC50/ΔNheavy with compound 1 as reference; for RA (%) at 10 µM, β5i: 10 µM compound
T4 construct: purchased Boston Biochem, Inc., Cambridge, MA, USA
Description: as §2
as §3, with “After 30 min of incubation at 37 °C, the reaction was started by adding the substrate Suc-LLVY-AMC (for β5 and β5i) or Ac-nLPnLD-AMC (for β1) or Ac-PAL-AMC (for β1i).” left out

[7] = biological target: T5, β1 subunit of human cCP (Homo sapiens, UniProt P28072+Q99436); experiment: Inhibition of β1 activity (RA, IC50), Ac-nLPnLD-AMC; type: biochemical; settings: PA28α; for β1 (RA [%]): 10 µM, Table 3
T5 construct: purchased Boston Biochem, Inc., Cambridge, MA, USA
Description: as §2, §3

[8] = biological target: T6, β5 subunit of human cCP (Homo sapiens, UniProt P20618+P28074); experiment: Inhibition of β5 activity (RA, IC50), Suc-LLVY-AMC; type: biochemical; settings: 30 min pre-incubation, SDS
T6 construct: purchased Boston Biochem, Inc., Cambridge, MA, USA
Description: as §2, §3

[9] = system: GSH; experiment: HPLC-based GSH reactivity assay; type: physicochemical; settings: 5 mM glutathione (GSH) in PBS buffer; 250 µM compound, 5 mM GSH, PBS pH 7.4; read-out: Reactivity with GSH (HPLC-based assay), t1/2
Description: as §1, with “The final concentration was 250 μM compound, 100 μM indoprofen, 5 mM GSH and 5% MeCN (500 μL).” left out, “In this experiment, the final concentration of the mixture was 250 μM fragment, 100 μM indoprofen and 5% MeCN.” left out

SMILES	Stability in Buffer (UV-Vis-based assay) [1]	Stability in Buffer (HPLC-based assay) [2]	also measured
N#Cc1nc2cc(NC(=O)c3ccccc3)ccc2o1 [Compound 25]	stable ^c,d (relative absorbance difference for the compound in the buffer was below 0.1)	stable ^c,d	
COc1ccc2nc(C#N)oc2c1 [Compound 8]	intermediate (between 0.1–0.2)	stable	IC50 [3]: 69 µM; β2 (RA [%]) ([4]; Table 3): NA (NA, Not active (RA above 90%)); β2i (RA [%]) ([5]; Table 3): NA (NA, Not active (RA above 90%)); IC50 [6]: 11 ± 6 µM; Group efficiency (GE) [6]: 0.44; β1 (RA [%]) [7]: NA (NA, Not active (RA above 90%)); β5 (RA [%]) at 10 µM [8]: 74% ^b
COc1ccc2oc(C#N)nc2c1 [Compound 7]	stable ^c,d (relative absorbance difference for the compound in the buffer was below 0.1)	stable ^c,d	half-life at 250 µM [9]: < 3 min; RA (%) at 10 µM, β5i [6]: 84 ± 11%; RA (%) at 10 µM, β5i ([6]; listed as 5-OMe): 84%; Group efficiency (GE) [6]: 0.01
N#Cc1nc2cccc([N+](=O)[O-])c2o1 [Compound 19]	stable ^c (relative absorbance difference for the compound in the buffer was below 0.1)		RA (%) at 10 µM, β5i [6]: 82 ± 2%
N#Cc1nc2cccc(NC(=O)c3ccccc3)c2o1 [Compound 27]	stable ^c (relative absorbance difference for the compound in the buffer was below 0.1)		
CC(C)C[C@H](NC(=O)Cn1c(C#N)nc2ccccc21)B1O[C@@H]2C[C@@H]3C[C@@H](C3(C)C)[C@]2(C)O1 [Compound 29]	unstable ^b,c (above 0.2)	unstable ^b,c	
N#Cc1nc2ccc([N+](=O)[O-])cc2o1 [Compound 18]	unstable ^c (above 0.2)		
CC(C)C[C@H](NC(=O)CCCCn1c(C#N)nc2ccccc21)B(O)O [Compound 36]	stable ^b (relative absorbance difference for the compound in the buffer was below 0.1)		IC50 [3]: 4.9 ± 0.4 µM; β2 (RA [%]) ([4]; Table 6): NA (NA, Not active (RA above 95%)); β2i (RA [%]) ([5]; Table 6): NA (NA, Not active (RA above 95%)); IC50 [6]: 59 ± 7 µM; IC50 ([7]; 30 min pre-incubation): 23 ± 6 µM; IC50 [8]: 6.4 ± 2.6 µM
N#Cc1nc2cc(N)ccc2o1 [Compound 21]	stable ^c (relative absorbance difference for the compound in the buffer was below 0.1)		
N#Cc1nc2ccc(O)cc2o1 [Compound 12]	intermediate ^c (between 0.1–0.2)		
N#Cc1nc2c(N)cccc2o1 [Compound 20]	stable ^c (relative absorbance difference for the compound in the buffer was below 0.1)		
N#Cc1nc2cccc(N)c2o1 [Compound 23]	stable ^c (relative absorbance difference for the compound in the buffer was below 0.1)		
CC(C)C[C@H](NC(=O)CCn1c(C#N)nc2ccc(Cl)cc21)B1O[C@@H]2C[C@@H]3C[C@@H](C3(C)C)[C@]2(C)O1 [Compound 37]	intermediate (between 0.1–0.2)	stable	IC50 [6]: 1.6 ± 1.3 µM; β5 (RA [%]) at 10 µM [8]: 14 ± 1% ^e
N#Cc1nc2ccc(NC(=O)c3ccccc3)cc2o1 [Compound 26]	unstable (above 0.2)	stable	
CC(C)C[C@H](NC(=O)Cn1c(C#N)nc2ccccc21)B(O)O [Compound 33]	unstable ^b,c (above 0.2)	unstable ^b,c	
N#Cc1nc2c(NC(=O)c3ccccc3)cccc2o1 [Compound 24]	stable ^c (relative absorbance difference for the compound in the buffer was below 0.1)		
CC(C)C[C@H](NC(=O)[C@H](Cc1ccccc1)NC(=O)c1cnccn1)B(O)O [Bortezomib, reference compound]			remaining activity at 10 µM ([3]; 10 µM, Table 3, read-out: β1i residual activity at 10 µM): 0%; β2 (RA [%]) ([4]; Table 3): 62 ± 9%; β2i (RA [%]) ([5]; Table 3): 16 ± 5%; β1 (RA [%]) [7]: 0%
CC(C)C[C@H](NC(=O)CCCCn1c(C#N)nc2ccccc21)B1O[C@@H]2C[C@@H]3C[C@@H](C3(C)C)[C@]2(C)O1 [Compound 32]	intermediate (between 0.1–0.2)	stable	IC50 [6]: 13 ± 2 µM; IC50 [8]: 1.6 ± 0.8 µM
N#Cc1nc2c([N+](=O)[O-])cccc2o1 [Compound 16]	intermediate (between 0.1–0.2)	unstable	
